Experimental data taken from patent US10689362B2, “Quinoxaline compounds as type III receptor tyrosine kinase inhibitors” (Development Center for Biotechnology, priority 2016, dated 2020).

How the values were obtained:
CSF-1R kinase = CSF-1R kinase (Homo sapiens (Human), UniProt P07333); test: CSF-1R kinase assay (AlphaScreen); assay type: biochemical; details: class symbol
Procedure: Inhibition of CSF-1R kinase activity by a test compound disclosed herein was estimated by AlphaScreen (PerkinElmer). […] Reactions were incubated at 30° C. for 45 min and stopped by adding 5 μL of 50 mM EDTA. Analysis of resulting product using an AlphaScreen kit, and counted with Enspire Alpha (PerkinElmer). […] The IC50 values of quinoxaline compounds of this invention against CSF-1R kinase were determined using the GraphPad Prism 5 software.

c-KIT kinase = c-KIT kinase (Homo sapiens (Human), UniProt P10721); test: c-KIT kinase assay (radiometric); assay type: biochemical
Procedure, shortened: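 Recombinant c-Kit (20 ng) with 2 μg Poly-(Glu4:Tyr1) in MOPS pH 7.0 buffer with MgCl2/MnCl2, 10 μM ATP plus [^33P]-ATP, 4% DMSO final, 60 min at 30° C. Stopped with phosphoric acid, filter-captured and scintillation counted; IC50 from curve fit.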

FLT3 kinase = FLT3 kinase (Homo sapiens (Human), UniProt P36888); test: FLT3 kinase assay (radiometric); assay type: biochemical; details: bound
Procedure, shortened: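 Recombinant FLT3 (5 ng) phosphorylating poly(Glu4:Tyr1) (2 μg) with 10 μM ATP plus [^33P]-ATP in MOPS pH 7.0 buffer, 4% DMSO final, 60 min at 30° C. Reaction stopped with phosphoric acid, filter-captured and scintillation-counted; IC50 derived from dose-response.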

PDGFRβ kinase = PDGFRβ kinase (Homo sapiens (Human), UniProt P09619); test: PDGFRβ kinase assay (radiometric); assay type: biochemical; details: bound
Procedure, shortened: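 Radiometric assay: recombinant PDGFRβ with poly(Glu4:Tyr1) in MOPS pH 7.0 buffer containing Mg2+/Mn2+, 10 μM ATP plus [33P]-ATP, and compound at 4% DMSO final. Incubated 60 min at 30° C, stopped with phosphoric acid, filter-captured and scintillation-counted. IC50 from curve fitting.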

[1] = tested on: CSF-1-dependent M-NFS-60 mouse myeloid leukemia cell; test: M-NFS-60 cell proliferation assay (CellTiter-96); assay type: cell-based; details: Cytotoxicity, M-NFS-60 cells, 72 hours
Procedure, shortened: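 CSF-1-dependent M-NFS-60 cells seeded at 2000 cells/well, settled overnight at 37 °C, 5% CO2, then exposed to increasing compound concentrations for 72 h. Viability read by CellTiter 96 AQueous One reagent (4 h) at 490 nm absorbance.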

[2] = tested on: MV4-11 human acute myeloid leukemia cell with FLT3-ITD mutation; test: MV4-11 cell proliferation assay (CellTiter-96); assay type: cell-based; details: Cytotoxicity, MV4-11 cells, 72 hours
Procedure, shortened: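 MV4-11 cells (FLT3-ITD, FLT3-dependent growth) seeded at 6500 cells/well, incubated overnight at 37° C., 5% CO2, then exposed to increasing compound concentrations for 72 hours. Viability read by CellTiter96 AQueous One reagent (4 hours), absorbance at 490 nm.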

[3] = tested on: Kasumi-1 human acute myeloid leukemia cell with c-KIT N822K activating mutation; test: Kasumi-1 cell proliferation assay (CellTiter-96); assay type: cell-based; details: Cytotoxicity, Kasumi-1 cells, 72 hours
Procedure, shortened: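 Kasumi-1 cells, seeded at 64000 cells/well and incubated overnight at 37 °C, were exposed to increasing compound concentrations for 72 h. Viability was measured by CellTiter96 AQueous One reagent (4 h) and absorbance at 490 nm.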

[4] = tested on: THP-1 human acute monocytic leukemia cell harboring NRAS G12D mutation; test: THP-1 cell proliferation assay (counter screen, CellTiter-96); assay type: cell-based; details: Cytotoxicity, THP-1 cells (counter screen), 72 hours
Procedure, shortened: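 THP-1 cells, RTK-independent owing to NRAS G12D, seeded at 5000/well, incubated overnight at 37 °C/5% CO2, then exposed to increasing compound concentrations for 72 h. CellTiter96 AQueous One reagent added for 4 h; viability from absorbance at 490 nm.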

[5] = tested on: osteoclast precursors (osteoclast differentiation); test: Osteoclast tartrate-resistant acid phosphatase assay; assay type: cell-based; details: 168 h, at 1 μM treatment, 7 days, RANKL and M-CSF, read-out: inhibition activity against osteoclast differentiation
Procedure: A serial dilution of test compound was dispensed into a 96-well black clear bottom plate. Compound was diluted by the addition of DMEM media supplemented with 10% characterized fetal bovine serum. Diluted compound was transferred to a 96-well black clear bottom plate. Three thousand osteoclast precursors (Lonza, Walkersville, Md.) were added per well in growth medium containing Receptor Activator of Nuclear Factor Kappa-beta ligand (RANKL) and M-CSF. […] At the end of the incubation period, 50 μL of supernatant from each well was transferred to a clear 96-well plate. Tartrate-resistant acid phosphatase activity in the supernatant samples was determined using an acid phosphatase assay kit (Sigma, St. Louis, Mo.). Absorbance was measured at 550 nm using a plate reader. […] The Inhibition activity against osteoclast differentiation for each compound at 1 μM treatment in duplicate was measured.

Sequence of c-KIT kinase (P10721 26-976): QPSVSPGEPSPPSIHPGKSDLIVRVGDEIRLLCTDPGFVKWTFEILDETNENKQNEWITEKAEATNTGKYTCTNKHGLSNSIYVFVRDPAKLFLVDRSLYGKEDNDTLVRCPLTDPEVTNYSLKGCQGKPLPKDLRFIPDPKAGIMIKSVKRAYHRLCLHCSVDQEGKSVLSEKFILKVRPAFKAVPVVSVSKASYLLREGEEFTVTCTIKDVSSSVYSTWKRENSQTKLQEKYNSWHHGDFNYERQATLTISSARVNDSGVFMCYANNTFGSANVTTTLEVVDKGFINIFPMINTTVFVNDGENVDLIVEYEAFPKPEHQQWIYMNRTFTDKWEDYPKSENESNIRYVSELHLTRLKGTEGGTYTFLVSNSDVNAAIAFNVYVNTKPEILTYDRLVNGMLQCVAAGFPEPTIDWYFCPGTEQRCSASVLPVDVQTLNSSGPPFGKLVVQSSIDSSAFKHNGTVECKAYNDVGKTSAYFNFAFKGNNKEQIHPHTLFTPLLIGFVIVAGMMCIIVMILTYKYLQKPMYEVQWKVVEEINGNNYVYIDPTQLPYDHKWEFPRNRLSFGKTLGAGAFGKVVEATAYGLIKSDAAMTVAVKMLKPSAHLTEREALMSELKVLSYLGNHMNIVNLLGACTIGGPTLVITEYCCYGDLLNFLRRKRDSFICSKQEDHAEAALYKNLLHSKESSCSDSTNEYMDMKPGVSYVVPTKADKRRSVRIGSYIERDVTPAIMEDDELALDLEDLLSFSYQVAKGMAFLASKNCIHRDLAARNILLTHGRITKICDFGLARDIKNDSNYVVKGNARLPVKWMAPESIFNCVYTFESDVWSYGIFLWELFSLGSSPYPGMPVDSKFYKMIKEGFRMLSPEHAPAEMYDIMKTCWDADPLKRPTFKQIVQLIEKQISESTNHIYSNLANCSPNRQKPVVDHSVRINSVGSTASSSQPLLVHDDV
Sequence of FLT3 kinase (P36888 27-993): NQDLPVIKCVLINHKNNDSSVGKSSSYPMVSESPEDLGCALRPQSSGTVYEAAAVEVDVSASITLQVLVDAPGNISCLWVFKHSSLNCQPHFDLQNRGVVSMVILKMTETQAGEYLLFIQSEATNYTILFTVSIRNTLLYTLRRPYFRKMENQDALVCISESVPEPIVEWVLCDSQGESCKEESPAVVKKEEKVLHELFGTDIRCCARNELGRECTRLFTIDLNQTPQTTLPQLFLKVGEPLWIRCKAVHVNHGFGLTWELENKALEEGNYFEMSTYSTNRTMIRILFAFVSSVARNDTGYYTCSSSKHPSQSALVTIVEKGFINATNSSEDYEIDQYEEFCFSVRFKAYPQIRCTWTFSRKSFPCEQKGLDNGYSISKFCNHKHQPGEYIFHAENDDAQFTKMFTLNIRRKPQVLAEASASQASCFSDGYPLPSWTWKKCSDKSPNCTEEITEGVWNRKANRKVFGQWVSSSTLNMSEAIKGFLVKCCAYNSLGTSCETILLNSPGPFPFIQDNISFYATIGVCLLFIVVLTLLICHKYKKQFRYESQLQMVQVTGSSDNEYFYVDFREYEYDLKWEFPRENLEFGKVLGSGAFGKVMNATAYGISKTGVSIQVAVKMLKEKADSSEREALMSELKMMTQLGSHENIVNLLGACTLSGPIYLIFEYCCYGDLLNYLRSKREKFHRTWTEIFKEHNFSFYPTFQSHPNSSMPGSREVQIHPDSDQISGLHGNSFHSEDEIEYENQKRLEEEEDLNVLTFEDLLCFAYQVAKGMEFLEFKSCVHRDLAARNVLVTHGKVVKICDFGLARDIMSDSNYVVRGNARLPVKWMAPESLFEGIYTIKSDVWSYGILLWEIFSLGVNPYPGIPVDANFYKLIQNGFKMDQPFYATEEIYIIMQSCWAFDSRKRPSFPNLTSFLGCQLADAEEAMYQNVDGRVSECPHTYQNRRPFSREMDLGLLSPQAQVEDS
Sequence of CSF-1R kinase (P07333 20-972): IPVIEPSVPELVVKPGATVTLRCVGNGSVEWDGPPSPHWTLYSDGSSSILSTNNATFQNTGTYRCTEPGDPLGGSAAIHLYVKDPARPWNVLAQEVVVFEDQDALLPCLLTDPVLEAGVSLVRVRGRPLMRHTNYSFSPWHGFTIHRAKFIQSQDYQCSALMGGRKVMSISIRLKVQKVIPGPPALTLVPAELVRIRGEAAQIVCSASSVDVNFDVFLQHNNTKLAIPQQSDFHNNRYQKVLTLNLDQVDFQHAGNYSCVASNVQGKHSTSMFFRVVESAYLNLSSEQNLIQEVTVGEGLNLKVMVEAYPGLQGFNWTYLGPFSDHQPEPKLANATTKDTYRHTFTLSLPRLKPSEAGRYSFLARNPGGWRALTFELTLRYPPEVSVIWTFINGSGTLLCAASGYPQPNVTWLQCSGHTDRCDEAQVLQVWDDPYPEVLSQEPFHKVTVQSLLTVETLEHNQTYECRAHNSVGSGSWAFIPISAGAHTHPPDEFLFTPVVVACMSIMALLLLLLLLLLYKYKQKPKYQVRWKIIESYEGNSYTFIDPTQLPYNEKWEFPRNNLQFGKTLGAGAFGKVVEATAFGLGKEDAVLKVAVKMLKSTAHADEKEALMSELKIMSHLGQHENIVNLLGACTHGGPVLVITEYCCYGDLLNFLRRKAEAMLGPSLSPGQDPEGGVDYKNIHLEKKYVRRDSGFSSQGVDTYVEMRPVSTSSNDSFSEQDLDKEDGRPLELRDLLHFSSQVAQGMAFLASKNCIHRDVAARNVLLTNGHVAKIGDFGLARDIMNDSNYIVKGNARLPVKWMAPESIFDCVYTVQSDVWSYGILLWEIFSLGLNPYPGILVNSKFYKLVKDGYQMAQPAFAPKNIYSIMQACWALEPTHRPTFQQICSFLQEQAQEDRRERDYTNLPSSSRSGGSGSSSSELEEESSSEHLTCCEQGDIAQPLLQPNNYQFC
Sequence of PDGFRβ kinase (P09619 33-1106): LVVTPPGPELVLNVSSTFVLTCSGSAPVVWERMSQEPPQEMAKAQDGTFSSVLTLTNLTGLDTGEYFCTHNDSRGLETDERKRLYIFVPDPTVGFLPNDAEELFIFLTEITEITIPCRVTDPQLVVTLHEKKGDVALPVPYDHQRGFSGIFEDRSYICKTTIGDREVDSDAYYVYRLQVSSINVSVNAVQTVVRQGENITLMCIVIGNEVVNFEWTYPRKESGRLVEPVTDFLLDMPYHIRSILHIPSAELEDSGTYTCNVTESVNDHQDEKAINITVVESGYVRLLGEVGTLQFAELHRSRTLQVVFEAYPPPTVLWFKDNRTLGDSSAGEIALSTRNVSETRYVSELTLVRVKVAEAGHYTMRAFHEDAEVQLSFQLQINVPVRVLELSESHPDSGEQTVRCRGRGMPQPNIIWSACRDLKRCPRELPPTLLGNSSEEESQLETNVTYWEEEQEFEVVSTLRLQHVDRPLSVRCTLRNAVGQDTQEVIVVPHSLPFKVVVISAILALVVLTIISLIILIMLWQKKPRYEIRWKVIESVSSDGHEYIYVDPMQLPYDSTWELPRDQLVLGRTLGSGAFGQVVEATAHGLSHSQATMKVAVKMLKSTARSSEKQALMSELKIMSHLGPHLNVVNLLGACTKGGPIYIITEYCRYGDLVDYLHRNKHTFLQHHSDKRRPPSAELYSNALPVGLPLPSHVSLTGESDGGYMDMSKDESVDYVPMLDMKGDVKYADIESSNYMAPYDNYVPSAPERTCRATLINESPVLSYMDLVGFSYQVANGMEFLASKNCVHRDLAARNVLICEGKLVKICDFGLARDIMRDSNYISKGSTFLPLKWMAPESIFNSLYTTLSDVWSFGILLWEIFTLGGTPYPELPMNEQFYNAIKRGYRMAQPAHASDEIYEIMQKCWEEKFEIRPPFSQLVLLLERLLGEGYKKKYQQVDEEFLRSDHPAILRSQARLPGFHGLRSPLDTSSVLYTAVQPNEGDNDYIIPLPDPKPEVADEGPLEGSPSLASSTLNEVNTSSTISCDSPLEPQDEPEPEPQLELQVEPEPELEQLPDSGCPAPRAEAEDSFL

SMILES | IC50 (CSF-1R kinase) [nM] | IC50 (c-KIT kinase; class symbol) [nM] | IC50 (FLT3 kinase) [nM] | IC50 (PDGFRβ kinase) [nM] | IC50 [1] [nM] | IC50 [2] [nM] | IC50 [3] [nM] | IC50 [4] [nM] | inhibition at 1 µM [5] [%] | IC50 (c-KIT kinase; bound) [nM]
COc1ccc(COc2ccc(Nc3ccc4ncc(N5CCNCC5)nc4c3C#N)cc2OC)cn1 [Example 59, 6-((3-methoxy-4-((6-methoxypyridin-3-yl)methoxy)phenyl)amino)-3-(piperazin-1-yl)quinoxaline-5-carbonitrile] | < 100 | 100 to 300 | > 1000 | > 1000 | < 300 | 1000 to 10000 | 300 to 1000 | 1000 to 10000 | > 50 | 
COc1cc(Nc2ccc3ncc(N4CCOCC4)nc3c2C#N)ccc1OCc1ccc(CN(C)C)nc1 [Example 115, 6-((4-((6-((dimethylamino)methyl)pyridin-3-yl)methoxy)-3-methoxyphenyl)amino)-3-morpholinoquinoxaline-5-carbonitrile] | < 100 | 300 to 1000 | > 1000 | > 1000 | < 300 | 1000 to 10000 | 1000 to 10000 | > 10000 | > 50 | 
COc1cc(Nc2ccc3ncc(C4=CCOCC4)nc3c2C#N)ccc1OCc1ccc(C)nc1 [Example 113, 3-(3,6-dihydro-2H-pyran-4-yl)-6-((3-methoxy-4-((6-methylpyridin-3-yl)methoxy)phenyl)amino)quinoxaline-5-carbonitrile] | < 100 | < 100 | > 1000 | > 1000 | < 300 | 1000 to 10000 | 300 to 1000 | > 10000 | > 50 | 
COc1ccc(COc2ccc(Nc3ccc4ncc(N5CCOCC5)nc4c3C#N)cc2OC)cc1F [Example 93, 6-((4-((3-fluoro-4-methoxybenzyl)oxy)-3-methoxy-phenyl)amino)-3-morpholinoquinoxaline-5-carbonitrile] | < 100 | < 100 | > 1000 | > 1000 | < 300 | > 10000 | < 300 | > 10000 | > 50 | 
COc1cc(Nc2ccc3ncc(N4CC(C)(OC)C4)nc3c2C#N)ccc1OCc1ccc(C)nc1 [Example 138, 3-(3-methoxy-3-methylazetidin-1-yl)-6-((3-methoxy-4-((6-methyl-pyridin-3-yl)methoxy)phenyl)amino)quinoxaline-5-carbonitrile] | < 100 | < 100 | > 1000 | > 1000 | < 300 | 1000 to 10000 | < 300 | > 10000 | > 50 | 
COc1ccc(COc2ccc(Nc3ccc4ncc(N5CCCC5)nc4c3C#N)cc2OC)cn1 [Example 79, 6-((3-methoxy-4-((6-methoxypyridin-3-yl)methoxy)phenyl)amino)-3-(pyrrolidin-1-yl)quinoxaline-5-carbonitrile] | < 100 | < 100 | > 1000 | > 1000 | < 300 | 1000 to 10000 | 300 to 1000 | > 10000 | > 50 | 
COc1ccc(COc2ccc(Nc3ccc4ncc(C(C)C)nc4c3C#N)cc2OC)cc1 [Example 109, 3-isopropyl-6-((3-methoxy-4-((4-methoxybenzyl)oxy)phenyl)amino)quinoxaline-5-carbonitrile] | < 100 |  | > 1000 | > 1000 | 1000 to 10000 | > 10000 | 1000 to 10000 | > 10000 | > 50 | > 1000
COc1ccc(COc2ccc(Nc3ccc4ncc(N5CCOCC5)nc4c3C#N)cc2F)cc1 [Example 56, 6-((3-fluoro-4-((4-methoxybenzyl)oxy)phenyl)amino)-3-morpholinoquinoxaline-5-carbonitrile] | < 100 | 100 to 300 | > 1000 | > 1000 | 300 to 1000 | 300 to 1000 | 1000 to 10000 | > 10000 | > 50 | 
COc1ccc(COc2ncc(Nc3ccc4ncc(N5CCOCC5)nc4c3C#N)cc2OC)cc1 [Example 37, 6-((5-methoxy-6-((4-methoxybenzyl)oxy)pyridin-3-yl)amino)-3-morpholinoquinoxaline-5-carbonitrile] | < 100 |  | > 1000 | > 1000 | < 300 | > 10000 | > 10000 | > 10000 | > 50 | > 1000
COc1cc(Nc2ccc3ncc(N4CCOCC4)nc3c2C#N)ccc1OCc1cccc(F)c1 [Example 91, 6-((4-((3-fluorobenzyl)oxy)-3-methoxyphenyl)amino)-3-morpholinoquinoxaline-5-carbonitrile] | < 100 | 100 to 300 | > 1000 | > 1000 | 300 to 1000 | 1000 to 10000 | 1000 to 10000 | > 10000 | > 50 | 
CCn1cc(COc2ccc(Nc3ccc4ncc(N5CCOCC5)nc4c3C#N)cc2OC)cn1 [Example 116, 6-((3-methoxy-4-((1-ethyl-1H-pyrazol-4-yl)methoxy)phenyl)amino)-3-morpholinoquinoxaline-5-carbonitrile] | < 100 | 100 to 300 | > 1000 | > 1000 | < 300 | 1000 to 10000 | 300 to 1000 | > 10000 | > 50 | 
COc1ccc(COc2ccc(Nc3ccc4ncc(NC(C)C)nc4c3C#N)cc2OC)cc1 [Example 17, 3-(isopropylamino)-6-((3-methoxy-4-((4-methoxybenzyl)oxy)phenyl)amino)quinoxaline-5-carbonitrile] | < 100 | < 100 | > 1000 | > 1000 | < 300 | 1000 to 10000 | 300 to 1000 | > 10000 | > 50 | 
COc1cc(Nc2ccc3ncc(N4CCOCC4)nc3c2C#N)ccc1OCc1ccc(N(C)C)nc1 [Example 104, 6-((4-((6-(dimethylamino)pyridin-3-yl)methoxy)-3-methoxyphenyl)amino)-3-morpholinoquinoxaline-5-carbonitrile] | < 100 | < 100 | > 1000 | > 1000 | 1000 to 10000 | 1000 to 10000 | 1000 to 10000 | > 10000 |  | 
COc1cc(Nc2ccc3ncc(N4CCOCC4)nc3c2C#N)ccc1OCc1ccco1 [Example 122, 6-((4-(furan-2-ylmethoxy)-3-methoxyphenyl)amino)-3-morpholinoquinoxaline-5-carbonitrile] | 100 to 300 | < 100 | > 1000 | > 1000 | 1000 to 10000 | 1000 to 10000 | 300 to 1000 | > 10000 |  | 
